Holding throughout (type): in vivo
Data set [1] relates to Melanoma. As to the kind of experiment: 124I-CLR1404 tumor uptake, model 43. The note with it: Mouse. The procedure:
(§1) All described animal studies were performed according to animal protocols approved by the Institutional Animal Care and Use Committee. Female athymic nude mice (Hsd:Athymic Nude-Foxnlnu or Crl:NU-Foxnlnu, Charles River Laboratories) about 4 to 5 weeks of age, 16 to 18 g (n=6), were used for human tumor xenograft studies. Mice were anesthetized with isoflurane and injected subcutaneously with viable tumor cells in 100 μl of Dulbecco's PBS (or, for glioma cells, […] of PBS) into the right flank. Inoculum sizes were 1×10^6 (for renal, ovarian, glioma, pancreatic, prostate, and NSCLC models), […] (for colorectal and uterine models), or 3×10^6 (breast).
(§2) Radioiodinated ^124I-CLR1404 was tested in subcutaneous and orthotopic xenografts of 60 different spontaneous, transgenic, human, and rodent malignant cell lines and tumor types. […] Representative examples are of both human (FIG. 5A-5I) and rodent (FIG. 5J-M) tumors.

For data set [2], the system named is Glioma CNS1. As to the kind of experiment: 124I-CLR1404 tumor uptake, model 49. The following applies: Rat xenograft. The procedure:
as §1, §2

In data set [3] the test system is Glioma RG2. As to the kind of experiment: 124I-CLR1404 tumor uptake, model 50. The following applies: Rat xenograft. The procedure: as §1, §2
Data set [4] has as its system Prostate LuCap. As to the kind of experiment: 124I-CLR1404 tumor uptake, model 29. The following applies: Mouse, Adenocarcinoma. The procedure: as §1, §2
Data set [5] relates to Pancreatic Capan-1. As to the kind of experiment: 124I-CLR1404 tumor uptake, model 22. The note with it: Nude mouse, Adenocarcinoma. The procedure:
as §1, §2

Data set [6] deals with Lung A-549 (NSCLC). As to the kind of experiment: 124I-CLR1404 tumor uptake, model 2. The following applies: SCID mouse, Adenocarcinoma. The procedure:
as §1, §2

Data set [7] relates to Multiple myeloma MM.1S. As to the kind of experiment: 124I-CLR1404 tumor uptake, model 13. The following applies: Nude mouse. The procedure:
as §1, §2

Data set [8] relates to Renal cell Caki-2. As to the kind of experiment: 124I-CLR1404 tumor uptake, model 23. The following applies: Nude mouse (orthotopic), Clear cell carcinoma. The procedure: as §1, §2
Data set [9] deals with Uterine MES SA/Dx5. As to the kind of experiment: 124I-CLR1404 tumor uptake, model 32. The note with it: Nude mouse, Sarcoma. The procedure: as §1, §2
Data set [10] deals with Retinoblastoma. As to the kind of experiment: 124I-CLR1404 tumor uptake, model 51. The following applies: Endogenous mouse, Blastoma. The procedure: as §1, §2
The test system of data set [11] is Colon CT26. As to the kind of experiment: 124I-CLR1404 tumor uptake, model 40. The note with it: SCID mouse, Adenocarcinoma. The procedure: as §1, §2
The test system of data set [12] is Colon-51. As to the kind of experiment: 124I-CLR1404 tumor uptake, model 6. The note with it: SCID mouse, Adenocarcinoma. The procedure:
as §1, §2

For data set [13], the system named is Neuroblastoma CHLA-20. As to the kind of experiment: 124I-CLR1404 tumor uptake, model 16. The following applies: Nude mouse. The procedure: as §1, §2
Data set [14] deals with Glioblastoma 105 GSC. As to the kind of experiment: 124I-CLR1404 tumor uptake, model 34. The note with it: NOD-SCID mouse (orthotopic), Glioma. The procedure: as §1, §2
The test system of data set [15] is Triple negative breast MDA-MB231. As to the kind of experiment: 124I-CLR1404 tumor uptake, model 31. The note with it: Nude mouse, Adenocarcinoma. The procedure: as §1, §2
For data set [16], the system named is Colon Pirc. As to the kind of experiment: 124I-CLR1404 tumor uptake, model 41. The following applies: Autochthonous Pirc rat, Adenocarcinoma. The procedure: as §1, §2

As for `C[N+](C)(C)CCOP(=O)([O-])OCCCCCCCCCCCCCCCCCCc1ccc(I)cc1` [^124I-CLR1404], the Uptake entry in [1], in data set [2], in [3], in data set [4], in data set [5] and in data set [6] was “Yes (Tumor uptake was considered positive if tumor to muscle ratio was greater than 3.)” in each case. The Uptake entry in data set [7], in data set [8], in [9], in [10], in data set [11] and in data set [12] was “Yes (Tumor uptake was considered positive if tumor to muscle ratio was greater than 3.)” each time. Besides, the Uptake result in [13], in [14], in data set [15] and in [16] was “Yes (Tumor uptake was considered positive if tumor to muscle ratio was greater than 3.)” in each case.
